Test results published in PubChem BioAssay AID248 (DTP/NCI, 2004).
Several values for one entry are separate records, joined by “and”; a condition that tells them apart may be missing. Identical values can stand only once. Inconclusive results and toxic doses are left out. Cut-off read from the data, not from the text of the source: active = T/C of 150% or more; inactive = T/C below 125%.

Test system: L1210 leukemia ip in BDF1 mice, survival T/C
Experiment: NCI In Vivo Anticancer Drug Screen. Data for tumor model L1210 Leukemia (intraperitoneal) in B6D2F1 (BDF1) mice
Conditions: endpoint: mean survival time, higher = longer survival
In short: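 Transplantable tumor model; survival measured in treated vs vehicle control mice. Value = treated/control.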

[1] = dose: 100.0 mg/kg/injection, schedule: Q01DX001 (ip), vehicle: carboxymethylcellulose (CMC)
[2] = dose: 200.0 mg/kg/injection, schedule: Q01DX001 (ip), vehicle: carboxymethylcellulose (CMC)
[3] = dose: 400.0 mg/kg/injection, schedule: Q01DX001 (ip), vehicle: carboxymethylcellulose (CMC)
[4] = dose: 100.0 mg/kg/injection, schedule: Q01DX001 (ip), vehicle: saline
[5] = dose: 200.0 mg/kg/injection, schedule: Q01DX001 (ip), vehicle: saline
[6] = dose: 400.0 mg/kg/injection, schedule: Q01DX001 (ip), vehicle: saline
[7] = dose: 100.0 mg/kg/injection, schedule: Q04DX002 (ip), vehicle: saline with Tween-80
[8] = dose: 100.0 mg/kg/injection, schedule: Q04DX003 (ip), vehicle: saline with Tween-80
[9] = dose: 200.0 mg/kg/injection, schedule: Q04DX002 (ip), vehicle: saline with Tween-80
[10] = dose: 200.0 mg/kg/injection, schedule: Q04DX003 (ip), vehicle: saline with Tween-80
[11] = dose: 100.0 mg/kg/injection, schedule: Q01DX009 (ip), vehicle: saline
[12] = dose: 200.0 mg/kg/injection, schedule: Q01DX009 (ip), vehicle: saline
[13] = dose: 100.0 mg/kg/injection, schedule: Q01DX009 (ip), vehicle: Klucel (hydroxypropylcellulose) (HPC)
[14] = dose: 100.0 mg/kg/injection, schedule: Q04DX003 (ip), vehicle: Klucel (hydroxypropylcellulose) (HPC)
[15] = dose: 200.0 mg/kg/injection, schedule: Q01DX009 (ip), vehicle: Klucel (hydroxypropylcellulose) (HPC)
[16] = dose: 200.0 mg/kg/injection, schedule: Q04DX003 (ip), vehicle: Klucel (hydroxypropylcellulose) (HPC)
[17] = dose: 400.0 mg/kg/injection, schedule: Q01DX009 (ip), vehicle: Klucel (hydroxypropylcellulose) (HPC)
[18] = dose: 400.0 mg/kg/injection, schedule: Q04DX003 (ip), vehicle: Klucel (hydroxypropylcellulose) (HPC)

Measured: T/C

C=CCOc1ccc2c(cc1=O)C(NC(C)=O)CCc1cc(OC)c(OC)c(OC)c1-2 (stereo unspecified)
inactive: [1] 114 % of control | [2] 120 % of control | [3] 117 % of control

CC1CCCC(C)C1O (stereo unspecified)
inactive: [4] 103 % of control | [5] 101 % of control | [6] 103 % of control

CCOC(=O)/C=C(\C)Nc1ccc(NC(C)=O)cc1
inactive: dose: 50.0 mg/kg/injection, schedule: Q01DX009 (ip), vehicle: water 107 % of control | dose: 100.0 mg/kg/injection, schedule: Q01DX009 (ip), vehicle: water 121 % of control | dose: 100.0 mg/kg/injection, schedule: Q04DX003 (ip), vehicle: water 96 % of control | dose: 200.0 mg/kg/injection, schedule: Q01DX009 (ip), vehicle: water 98 % of control | dose: 200.0 mg/kg/injection, schedule: Q04DX003 (ip), vehicle: water 96 % of control | dose: 400.0 mg/kg/injection, schedule: Q01DX009 (ip), vehicle: water 100 % of control | dose: 400.0 mg/kg/injection, schedule: Q04DX003 (ip), vehicle: water 101 % of control

O=C(O)Cc1cccc(S(=O)(=O)F)c1
inactive: dose: 25.0 mg/kg/injection, schedule: Q04DX003 (ip), vehicle: saline with Tween-80 96 % of control | dose: 50.0 mg/kg/injection, schedule: Q01DX009 (ip), vehicle: saline with Tween-80 109 % of control | dose: 50.0 mg/kg/injection, schedule: Q04DX003 (ip), vehicle: saline with Tween-80 99 % of control | dose: 100.0 mg/kg/injection, schedule: Q01DX001 (ip), vehicle: saline with Tween-80 96 % of control | dose: 100.0 mg/kg/injection, schedule: Q01DX009 (ip), vehicle: saline with Tween-80 111 % of control | [7] 91 % of control | [8] 99 % of control and 100 % of control | dose: 200.0 mg/kg/injection, schedule: Q01DX001 (ip), vehicle: saline with Tween-80 92 % of control | dose: 200.0 mg/kg/injection, schedule: Q01DX009 (ip), vehicle: saline with Tween-80 104 % of control | [9] 86 % of control | [10] 105 % of control | dose: 400.0 mg/kg/injection, schedule: Q01DX001 (ip), vehicle: saline with Tween-80 100 % of control

OC1(c2ccccc2)c2ccccc2C(O)(c2ccccc2)c2cc(-c3ccccc3)c(-c3ccccc3)cc21 (stereo unspecified)
inactive: dose: 100.0 mg/kg/injection, schedule: Q04DX002 (ip), vehicle: Klucel (hydroxypropylcellulose) (HPC) 95 % of control | dose: 200.0 mg/kg/injection, schedule: Q04DX002 (ip), vehicle: Klucel (hydroxypropylcellulose) (HPC) 103 % of control | dose: 400.0 mg/kg/injection, schedule: Q04DX002 (ip), vehicle: Klucel (hydroxypropylcellulose) (HPC) 106 % of control

O=C1CCCCCN1
inactive: [4] 101 % of control | [11] 100 % of control | dose: 100.0 mg/kg/injection, schedule: Q04DX002 (ip), vehicle: other 98 % of control | [5] 101 % of control | [12] 100 % of control | dose: 200.0 mg/kg/injection, schedule: Q04DX002 (ip), vehicle: other 95 % of control | [6] 103 % of control | dose: 400.0 mg/kg/injection, schedule: Q04DX002 (ip), vehicle: other 101 % of control

CC(=O)Oc1c(C(C)(C)C)cc([N+](=O)[O-])c(C)c1[N+](=O)[O-]
inactive: dose: 25.0 mg/kg/injection, schedule: Q04DX002 (ip), vehicle: Klucel (hydroxypropylcellulose) (HPC) 95 % of control | dose: 50.0 mg/kg/injection, schedule: Q04DX002 (ip), vehicle: Klucel (hydroxypropylcellulose) (HPC) 97 % of control

CN(C)C(C(=O)O)c1ccccc1 (stereo unspecified)
inactive: [7] 101 % of control | [9] 97 % of control | dose: 400.0 mg/kg/injection, schedule: Q04DX002 (ip), vehicle: saline with Tween-80 97 % of control

Cc1cc(NC(=O)Nc2ccc(F)cc2)no1
inactive: [1] 100 % of control | dose: 100.0 mg/kg/injection, schedule: Q01DX009 (ip), vehicle: carboxymethylcellulose (CMC) 97 % of control and 105 % of control | dose: 100.0 mg/kg/injection, schedule: Q04DX002 (ip), vehicle: carboxymethylcellulose (CMC) 104 % of control | [2] 97 % of control | dose: 200.0 mg/kg/injection, schedule: Q01DX009 (ip), vehicle: carboxymethylcellulose (CMC) 97 % of control | dose: 200.0 mg/kg/injection, schedule: Q04DX002 (ip), vehicle: carboxymethylcellulose (CMC) 92 % of control and 102 % of control | [3] 101 % of control | dose: 400.0 mg/kg/injection, schedule: Q01DX009 (ip), vehicle: carboxymethylcellulose (CMC) 94 % of control and 95 % of control | dose: 400.0 mg/kg/injection, schedule: Q04DX002 (ip), vehicle: carboxymethylcellulose (CMC) 92 % of control and 94 % of control

CSC(=NC1CCCCC1)Nc1ccccc1
inactive: dose: 100.0 mg/kg/injection, schedule: Q01DX001 (ip), vehicle: other 98 % of control | dose: 200.0 mg/kg/injection, schedule: Q01DX001 (ip), vehicle: other 98 % of control | dose: 400.0 mg/kg/injection, schedule: Q01DX001 (ip), vehicle: other 88 % of control

Cc1cccc(NC(=O)Nc2ccccc2)c1C
inactive: [13] 104 % of control | [14] 101 % of control | [15] 96 % of control | [16] 95 % of control | [17] 104 % of control | [18] 98 % of control

CC(=O)Nc1ccc2c(c1)C(=Nc1ccccc1)c1ccccc1-2
inactive: [8] 91 % of control | [10] 91 % of control | dose: 400.0 mg/kg/injection, schedule: Q04DX003 (ip), vehicle: saline with Tween-80 91 % of control

c1ccc2cc(N=Nc3ccc4ccccc4c3)ccc2c1
inactive: [13] 98 % of control | [14] 95 % of control | [15] 97 % of control | [16] 92 % of control | [17] 102 % of control | [18] 94 % of control

O=C(Nc1ccc(F)c([N+](=O)[O-])c1)N1CCN(c2ccccc2)CC1
inactive: [13] 101 % of control | [15] 98 % of control | [17] 107 % of control

CN(C)C(=O)CCCCC(=O)N(C)C
inactive: dose: 100.0 mg/kg/injection, schedule: Q04DX002 (ip), vehicle: saline 94 % of control | dose: 200.0 mg/kg/injection, schedule: Q04DX002 (ip), vehicle: saline 86 % of control | dose: 400.0 mg/kg/injection, schedule: Q04DX002 (ip), vehicle: saline 105 % of control

CCN(CC)C(=O)Cn1cc(F)c(N)nc1=O
inactive: [11] 98 % of control | dose: 100.0 mg/kg/injection, schedule: Q04DX003 (ip), vehicle: saline 92 % of control | [12] 107 % of control | dose: 200.0 mg/kg/injection, schedule: Q04DX003 (ip), vehicle: saline 92 % of control | dose: 400.0 mg/kg/injection, schedule: Q01DX009 (ip), vehicle: saline 94 % of control | dose: 400.0 mg/kg/injection, schedule: Q04DX003 (ip), vehicle: saline 95 % of control

CS(=O)(=O)OCC(O)C(O)CI (stereo unspecified)
inactive: dose: 75.0 mg/kg/injection, schedule: Q01DX001 (ip), vehicle: water 104 % of control | dose: 150.0 mg/kg/injection, schedule: Q01DX001 (ip), vehicle: water 111 % of control | dose: 300.0 mg/kg/injection, schedule: Q01DX001 (ip), vehicle: water 116 % of control

O=C1C=CC(=O)c2c(O)c(CO)c(CO)c(O)c21
inactive: dose: 0.78 mg/kg/injection, schedule: Q01DX009 (ip), vehicle: water 89 % of control | dose: 1.56 mg/kg/injection, schedule: Q01DX009 (ip), vehicle: water 86 % of control

CC(=O)Nc1c(Cl)c(Cl)c2c(c1Cl)Cc1cc(Cl)c(Cl)cc1-2
inactive: dose: 50.0 mg/kg/injection, schedule: Q01DX009 (ip), vehicle: acetone 93 % of control | dose: 50.0 mg/kg/injection, schedule: Q04DX003 (ip), vehicle: acetone 94 % of control | dose: 100.0 mg/kg/injection, schedule: Q01DX009 (ip), vehicle: acetone 95 % of control | dose: 100.0 mg/kg/injection, schedule: Q04DX003 (ip), vehicle: acetone 93 % of control | dose: 200.0 mg/kg/injection, schedule: Q01DX009 (ip), vehicle: acetone 97 % of control | dose: 200.0 mg/kg/injection, schedule: Q04DX003 (ip), vehicle: acetone 93 % of control
